Assay results published in US9592223B2, “Small molecule inhibitors of MALT1” (Cornell University, priority 2012, dated 2017).

Columns and labels:
[1] = tested on: ABC-DLBCL MALT1 independent cell lines U2932 and HLY-1; assay: Growth inhibition, MALT1 independent ABC-DLBCL cell lines; assay type: cell-based, human; settings: 50 μM, 48 hr
Experimental: (§1) Endogenous MALT1 activity was evaluated by Western blotting for A20, BCL10 and CYLD; and NF-κB activation, by phospho-IκB-α and total IκB-α. Dependence on MALT1 proteolytic activity for proliferation was tested by 50[…]μM Z-VRPR-FMK treatment for 48 hr. […] The U2932 and HLY1 ABC-DLBCL cell lines harbor mutations in TAK1 and A20, which activate NF-κB signaling downstream of MALT1.
(§2) Cell proliferation was determined by ATP quantification using a luminescent method (CellTiter-Glo, Promega, Madison, Wis.) and Trypan blue dye-exclusion (Sigma, St. Louis, Mo.). Cell viability in drug-treated cells was normalized to their respective controls (fractional viability) and results are given as 1-fractional viability. […]
(§3) DLBCL cell lines were grown in exponential growth conditions during the 48 hr of treatment. Cell proliferation was determined by ATP quantification using a luminescent method (CellTiter-Glo, Promega, Madison, Wis.) and Trypan blue dye-exclusion (Sigma, St. Louis, Mo.). Luminescence was measured using the Synergy4 microplate reader (BioTek Instruments, Winooski, Vt.). Standard curves for each cell line were calculated by plotting the cell number (determined by the Trypan blue method) against their luminescence values and number of cells was calculated accordingly. […]

[2] = tested on: c-REL; assay: c-REL flow cytometry of whole cells or isolated nuclei, HBL-1 cells; assay type: cell-based, human; settings: 200 nM MI-2 or 50 μM Z-VRPR-FMK, 24 hr
Experimental: MALT1 mediates c-REL translocation to the nucleus following BCR stimulation (Ferch et al., 2007). […] This selectivity towards c-REL had also been previously shown in MALT1 knockout mice and after MALT1 cleavage inhibition by the MALT1 blocking peptide Z-VRPR-FMK (Ferch et al., 2009; Ferch et al., 2007; Hailfinger et al., 2011).
[…] was studied by flow cytometry. Cells were treated as indicated and total cells or isolated nuclei were prepared and stained for c-REL. Total cells were fixed and permeabilized using the Intrastain kit from Dako (Glostrup, Denmark). For nuclei extraction, cells were resuspended in cold nuclei extraction buffer (320 mM sucrose, 5 mM MgCl2, 10 mM HEPES, 1% Triton X-100 at pH 7.4), incubated for 10 min on ice and washed twice with nuclei wash buffer (320 mM sucrose, 5 mM MgCl2, 10 mM HEPES at pH 7.4, no Triton X-100). Nuclei yield and integrity were confirmed by microscopic examination with trypan blue staining. For labeling, nuclei wash buffer was supplemented with 1% BSA, 0.1% sodium azide and 1:100 c-REL antibody (Cell Signaling). Cells were washed then incubated with Alexa Fluor-488 conjugated secondary antibodies from Invitrogen. Cells were washed again and stained with DAPI followed by flow cytometry.

[3] = tested on: MALT1 dependent ABC-DLBCL cells HBL-1, TMD8, OCI-Ly3 and OCI-Ly10; assay: Growth inhibition, MALT1 dependent cell lines; assay type: cell-based, human; settings: 50 μM, 48 hr
Experimental: as §1, §2, §3

[4] = tested on: MALT1^WT NF-κB activation; assay: NF-κB reporter assay in 293T cells, PMA/ionomycin, BCL10 and MALT1 WT; assay type: cell-based; settings: pre-treatment
Text: Antigen receptor-mediated NF-κB signaling partly depends on MALT1 activity (Ruefli-Brasse et al., 2003; Ruland et al., 2003). […] First, 293T cells were transfected with the NF-κB reporter vector (NF-κB)5-luc2CP-pGL4 (harboring 5 copies of the NF-κB consensus response element and a destabilized Firefly luciferase) and TK-pRL control together with plasmids expressing BCL10 and either MALT1^WT or MALT1^C464A. […] HBL-1 was transfected with the reporter construct (NF-κB)5-luc2CP-pGL4 and TK-pRL control.
Reporter assays were performed in 293T cells seeded at a density of 2×10^5 cells per well of a 12-well dish. 100 ng of (NF-κB)5-Luc2CP-pGL4 and 10 ng of TK-Renilla internal control plasmid were cotransfected along with 25 ng of the indicated plasmids (MIGR1-MALT1^WT or MIGR1-MALT1^C464A and pcDNA4-Flag-Bcl10) using Lipofectamine 2000 (Invitrogen). Lysates were submitted to dual luciferase assays following manufacturer's protocol (Promega). In HBL-1, 5 μg of (NF-κB)5-Luc2CP-pGL4 and 50 ng of TK-Renilla internal control plasmid per 5×10^6 cells were cotransfected using nucleofection (Amaxa, Lonza, Basel, Switzerland). Forty-eight hours after transfection, cells were plated at a density of 5×10^4 cells per well of a 24-well plate and treated as indicated. Lysates were submitted to dual luciferase assays following manufacturer's protocol (Promega).

[5] = tested on: GCB-DLBCL cell lines OCI-Ly7 and OCI-Ly1; assay: Growth inhibition, GCB-DLBCL cell lines; assay type: cell-based, human; settings: 50 μM, 48 hr
Experimental: as §1, §2, §3

[6] = target: T1, LZ-MALT1 (Homo sapiens, UniProt Q9UDY8); assay: Dose-effect and time-course of MALT1 inhibition (pre-incubation, then Ac-LRSR-AMC); assay type: biochemical; settings: pre-incubation 5 to 80 minutes
T1 construct: His tag (N); made in house; host or cells: E. coli
Experimental: The reactions were monitored in a SpectraMax M5 plate reader (Molecular Devices, Sunnyvale, Calif. USA) with excitation/emission wavelength at 360/465 nm and 20 seconds intervals. Normalized percentage of inhibition was calculated with the following formula: (M(T2-T1)−N(T2-T1))/(P(T2-T1)−N(T2-T1))*100, where M(T2-T1) is the difference signal of compound at time point 200s and 0s, N(T2-T1) is the difference signal of negative control buffer only, P(T2-T1) is the difference signal of positive control Z-VRPR-FMK.

[7] = target: T2, LZ-MALT1 (MALT1 (340-789) fused with a leucine zipper dimerization motif) (Homo sapiens, UniProt Q9UDY8); assay: LZ-MALT1 fluorescence assay (Ac-LRSR-AMC cleavage), screening and concentration response; assay type: biochemical
T2 construct: His tag (N); made in house; host or cells: E. coli
Text: We reasoned that MALT1 small-molecule inhibitors might be useful chemical tools for studying MALT1 biology and treating MALT1 addicted tumors. However, full-length MALT1 and its paracaspase domain (amino acids 340-789) are naturally present in physiological solutions as a monomer, which has very low proteolytic activity. Caspases generally must homodimerize for maximal catalytic activity (Pop et al., 2006; Walker et al., 1994; Yin et al., 2006) and accordingly the recently reported structures of the paracaspase domain of MALT1 in complex with a peptide inhibitor are dimeric (Wiesmann et al., 2012; Yu et al., 2011). […]
Ac-LRSR-AMC was used as substrate and reactions were measured with excitation/emission wavelengths of 360/465 nm. […] The final percent inhibition was calculated with the formula: {[fluorescencetest compound(T2-T1)−fluorescenceneg ctrl(T2−T1)]/[fluorescencepos ctrl(T2−T1)−fluorescenceneg ctrl(T2−T1)]}×100. […]
The screening consisted of a 20 μl reaction in 384-well black plates (Greiner Bio One, Wemmel, Belgium, catalogue #784076) with 100 nM LZ-MALT1, 200 μM Ac-LRSR-AMC, and 12.5 μM test compound in buffer A (20 mM HEPES pH 7.5, 10 mM KCl, 1.5 mM MgCl2, 1 mM EDTA, 1 mM DTT, 0.01% Triton X-100). The reactions were measured with excitation/emission wavelengths of 360/465 nm using Envision Multilabel Reader (Perkin-Elmer, Waltham, Mass.). […]

T1 sequence (Q9UDY8 with tags, fused parts or gaps limits assumed): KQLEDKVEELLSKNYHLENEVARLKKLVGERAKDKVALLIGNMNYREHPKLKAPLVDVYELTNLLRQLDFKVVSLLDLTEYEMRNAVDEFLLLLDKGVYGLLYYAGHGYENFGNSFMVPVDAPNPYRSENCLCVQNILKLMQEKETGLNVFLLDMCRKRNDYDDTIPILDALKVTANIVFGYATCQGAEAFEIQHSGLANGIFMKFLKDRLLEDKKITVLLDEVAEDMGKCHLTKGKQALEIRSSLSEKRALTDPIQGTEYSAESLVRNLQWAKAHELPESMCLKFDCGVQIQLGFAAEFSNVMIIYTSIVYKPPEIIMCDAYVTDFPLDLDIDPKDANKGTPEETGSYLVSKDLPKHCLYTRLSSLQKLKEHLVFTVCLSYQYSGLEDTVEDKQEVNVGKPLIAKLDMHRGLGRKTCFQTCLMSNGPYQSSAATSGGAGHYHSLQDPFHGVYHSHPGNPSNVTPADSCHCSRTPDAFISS
T2 sequence (Q9UDY8 with tags, fused parts or gaps limits assumed): as above

| Molecule | response of proliferation [1] | nuclear c-REL ([2]; isolated nuclei) | whole cell c-REL ([2]; whole cells) | response of proliferation [3] | NF-κB induction by PMA/ionomycin stimulation [4] | response of proliferation [5] | kind of inhibition (time dependence) [6] | percent MALT1 inhibition reached [6] [%] | biochemical IC50 (in words) [7] |
| --- | --- | --- | --- | --- | --- | --- | --- | --- | --- |
| Z-VRPR-FMK [reference compound] | relatively little response | reduced nuclear c-REL | without affecting whole cell levels | inhibition of proliferation | significantly inhibited NF-κB induction | did not respond | – | – | – |
| COCCOc1nc(-c2cccc(OC)c2)n(-c2ccc(NC(=O)c3cccc([N+](=O)[O-])c3)cc2)n1 [MI-2A2] | – | – | – | – | – | – | reversible inhibition | ~50 | lower IC50 |
